# Results as given in PMC1977984 (British Journal of Cancer, 1992).
# Like-named read-outs stand apart in the source and are kept apart here. Starred links: 1 amine or outer side, 2 acyl side, 3 side chain; linkers in the order of their positions; H or OH if unused. Positions of bridges follow the written chain, without caps; N, C: chain ends. Non-standard residues stand in square brackets, D forms with d. Residues, ends and D or L forms follow the SMILES beside them. Chains are numbered I, II in the order given. Actinocin(9to1) = Cc1c2oc3c(C)ccc(C(=O)[*:1])c3nc-2c(C(=O)[*:2])c(N)c1=O; NMeV = CN[C@H](C(=O)O)C(C)C; Sar = CNCC(=O)O
# Columns and labels:
# [1] = tested on: drug resistant variant of the Ridgway osteogenic sarcoma; design: method as in Merry et al., 1991; settings: in vivo model; ref Merry et al., 1991; cited from earlier work
# [2] = cited from earlier work
# [3] = tested on: MCF-7 wt cell line; test: cells
# Excerpt: (§1) Br. J. Cancer (1992), 66, 833-839 ? […] Clinical effects and in vitro assessment in p-glycoprotein expressing cell lines N.S.A. Stuart', P. Philip', A.L. Harris', K. Tonkin', S. Houlbrook2, J. Kirk2, E.A. Lien3 & J. Carmichael' 'ICRF Clinical Oncology Unit, Churchill Hospital, Oxford OX3 7LJ; 2MRC Radiobiology Unit, Chilton, Didcot, Oxon; 3Department of Pharmacology and Toxicology, University of Bergen, Bergen, Norway. […] Cytotoxic drug resistance frequently affects a wide range of cytotoxic agents. It is commonly inherent, although it may also be acquired after initial response to cytotoxic drugs. Cell lines exposed in vitro to one cytotoxic drug may also become resistant to a range of structurally and functionally diverse agents. This multidrug resistant (MDR) phenotype is associ- ated with the presence of a 170 kd membrane glycoprotein, the P-glycoprotein (Pgp) (Juliano et al., 1976; Kartner et al., 1983; Riordan et al., 1985) which acts as an energy depen- dent efflux pump (Skovsgaard, 1978). […] Unfor- tunately many cause unacceptable toxicity at levels below those needed to modulate resistance and have therefore not been useful clinically (Ozols et al., 1987). Some encouraging results have however been reported in lymphoid malignan- cies. […] It is widely used in the treatment of breast cancer at doses of 20-40mgday-' and at such doses produces serum levels around 0.5 JiM (Adam et al., 1980; Fabian et al., 1980; Lien et al., 1989). […] Etoposide (VP16-213, Vepesid) is an epipodophyllotoxin derived cytotoxic drug which interferes with the action of the nuclear enzyme topoisomerase II producing lethal single and double stranded DNA breaks (Chen et al., 1984). It has activity in a number of solid tumours and resistance to it is part of the typical MDR phenotype (Endicott et al., 1989). […] The study therefore included patients with a range of relapsed and chemoresistant tumours. […] Patients had ECOG performance scores of 2 or better, had normal renal and hepatic function and had normal peripheral blood counts. […] Correspondence: N.S. Stuart. Received 13 March 1992; and in revised form 8 July 1992. 'PI Macmillan Press Ltd., 1992 Br. J. Cancer (1992), 66, 833-839 834 N.S.A. STUART et al. No formal compliance check was conducted but patients were asked specifically whether they had difficulties taking the correct number of tablets. Oral etoposide was given at a dose of 300mgday-' (150mg two times day-') for the first course. Patients who remained myelosuppressed on day 21 had the dose of etoposide reduced to 200 mg day-' for subse- quent courses. In those who had no significant myelosuppres- sion the dose of etoposide was increased to 400 mg day-'. […] Blood samples were centrifuged and the serum removed and stored at -20?C prior to measurement. […] The methods used have been published previously (Lien et al., 1989; 1987). […] The drugs were detected by being converted to fluorophors by subjecting the effluent of the column to ultra-violet light while passing through a quartz tube. The identity of the analyses was confirmed by liquid chromatography/mass spec- trometry using an on-line mass spectrometer connected to the analytical column (Lien et al., 1988). Serum levels in different patient populations were compared using the Mann-Whitney U-test. Cells and culture conditions Three pairs of cell lines were assessed. Each comprised a wild-type parental cell line and a P-glycoprotein expressing daughter line. The wild-type MCF-7 cell line was derived from a human breast cancer (Soule et al., 1973) while the CHO-KI cell line was derived from Chinese hamster ovaries (CHO).
# [4] = tested on: MCF-7 adrr cell line; test: cells
# Excerpt: as §1
# [5] = tested on: S1 cell line (SW-1573); test: cells; settings: for Enhancement: S1, IC50 etoposide alone divided by IC50 with MNTC tamoxifen
# Excerpt: as §1
# [6] = tested on: human BRO melanoma cells; design: method as in Lincke et al., 1990; settings: parental BRO cell line; ref Lincke et al., 1990; read-out: IC50 for etoposide; cited from earlier work
# [7] = tested on: S1/1.1 cell line; settings: for Enhancement: S1/1.1, IC50 etoposide alone divided by IC50 with MNTC tamoxifen
# Excerpt: as §1
# [8] = tested on: CHO-KI adrr cell line; settings: for Enhancement: CHO-KI adrr, IC50 etoposide alone divided by IC50 with MNTC tamoxifen
# Excerpt: as §1
# [9] = Excerpt: as §1
# [10] = tested on: MCF-7 adrr cell line; design: method as in Foster et al., 1988; settings: ref Foster et al., 1988; cited from earlier work
# [11] = tested on: P388/ADR murine leukaemia line; design: method as in Ramu et al., 1984; settings: ref Ramu et al., 1984; cited from earlier work
# [12] = tested on: multidrug resistance in vitro; design: method as in earlier work; settings: ref Chatterjee et al., 1990b; Foster et al., 1988; Ramu et al., 1984; cited from earlier work
# [13] = tested on: CHO-KI adrr cell line; design: method as in Chatterjee et al., 1990b; settings: dox resistant CHO-KI adrr line; ref Chatterjee et al., 1990b; cited from earlier work
# [14] = tested on: CHO-KI cell line; design: method as in Chatterjee et al., 1990b; settings: parental CHO-KI line; ref Chatterjee et al., 1990b; cited from earlier work
# [15] = tested on: CHO-KI cell line; settings: IC50 etoposide alone divided by IC50 with MNTC tamoxifen
# Excerpt: as §1
# [16] = tested on: Chinese hamster lung (DC3F/ADX) and breast cancer (MCF-7 adrr) cell lines; design: method as in Politi et al., 1990; settings: multidrug resistant mutants; ref Politi et al., 1990; cited from earlier work
# [17] = Homo sapiens, MCF7, 96 h, read-out: IC50 etoposide
smiles,measurement,setting,value
"Cc1c2oc3c(C)ccc(C(=O)N[C@@H]4C(=O)N[C@H](C(C)C)C(=O)N5CCC[C@H]5C(=O)N(C)CC(=O)N(C)[C@@H](C(C)C)C(=O)O[C@@H]4C)c3nc-2c(C(=O)N[C@@H]2C(=O)N[C@H](C(C)C)C(=O)N3CCC[C@H]3C(=O)N(C)CC(=O)N(C)[C@@H](C(C)C)C(=O)O[C@@H]2C)c(N)c1=O [actinomycin- D, actinomycin-D] (I: T[dV]P[Sar][NMeV] / II: T[dV]P[Sar][NMeV]; ester I:1-I:C, II:1-II:C; linker I:N-II:N via Actinocin(9to1))",Resistance of the drug resistant variant,[1],1.5 fold
CC/C(=C(\c1ccccc1)c1ccc(OCCN)cc1)c1ccccc1 [didesmethyltamoxifen],Levels lower than those of the parent compound,[2]; in vivo,60-85%
COc1cc([C@@H]2c3cc4c(cc3[C@@H](O[C@@H]3O[C@@H]5CO[C@@H](C)O[C@H]5[C@H](O)[C@H]3O)[C@H]3COC(=O)[C@H]23)OCO4)cc(OC)c1O [etoposide],IC50,[3]; [17],950 nM
same,IC50,[4]; [17],60000 nM
same,Resistance to etoposide in comparison to the MCF-7 wild type cell line,[4]; MCF-7 adrr versus MCF-7 wt,60 fold
same,IC50,"[5]; Homo sapiens, SW1573, 96 h, read-out: IC50 etoposide",3000 nM
same,IC50,[6],16 nM
same,More sensitive than the parental line,"[7]; S1/1.1 versus S1, P<0.01",2 fold
same,More resistant than its parental line,[8]; CHO-KI adrr versus CHO-KI,5 fold
same,Thrombocytopenia,"[9]; human, in vivo, po",No significant thrombocytopenia
same,Resistance of the drug resistant variant,[1],5 fold
CC/C(=C(\c1ccccc1)c1ccc(OCCN(C)C)cc1)c1ccccc1 [tamoxifen],Reversal of adriamycin and vinblastine resistance,[10],partial reversal
same,Reversal of adriamycin resistance,[11],partially reversed the resistance
same,Levels sufficient to modulate multidrug resistance in vitro,[12],3-10 JAM
same,Enhancement of dox cytotoxicity,[13],16 fold
same,Enhancement of dox cytotoxicity,[14],4.8 fold
same,Serum levels,"[2]; after 9 days on 260 mg of tamoxifen twice a day, ref Trump et al., 1991",6.1 µM
same,Serum levels,"[2]; continuing tamoxifen 480 mg day-1 indefinitely, ref Stuart et al., 1991",around 4 microM
same,Steady state serum levels,"[2]; standard dose tamoxifen 20-40 mg day-1, after 4 weeks, ref Adam et al., 1980, Fabian et al., 1980, Lien et al., 1989",0.25 to 1.0 µM
same,"Serum levels, plateau","[2]; tamoxifen 160 mg three times a day, after 10 days, ref Stuart et al., 1991",around 4 microM
same,Serum levels,"[2]; tamoxifen doses of 20-40 mg day-1 in breast cancer, ref Adam et al., 1980, Fabian et al., Lien et al., 1989",around 0.5 microM
same,Enhancement,"[3]; MCF-7 wt, IC50 etoposide alone divided by IC50 with MNTC tamoxifen",1.2
same,Enhancement,"[4]; MCF-7 adrr, IC50 etoposide alone divided by IC50 with MNTC tamoxifen",0.7
same,Enhancement,[5],0.9
same,Enhancement,[5]; listed as Tamoxifen,no significant effect
same,Enhancement,[7],0.9
same,Enhancement,[7]; listed as Tamoxifen,no significant effect
same,Enhancement,[8],0.85
same,Enhancement,[8]; listed as Tamoxifen,no significant effect
same,Enhancement,[15],1.0
same,Enhancement,[15]; listed as Tamoxifen,no significant effect
same,Neurological symptoms: Severe/v. severe (number of patients),"[9]; tamoxifen 480 mg day-1, total 10 patients",0
same,Neurological symptoms: Severe/v. severe (number of patients),"[9]; tamoxifen 720 mg day-1, total 16 patients",1 (6%)
COc1ccc(CCN(C)CCCC(C#N)(c2ccc(OC)c(OC)c2)C(C)C)cc1OC (stereo not drawn) [verapamil],Effect on etoposide resistance,[16],3-4 fold
same,Enhancement (reversal of resistance to vincristine),[16],11-125 fold
CC[C@]1(O)C[C@H]2CN(CCc3c([nH]c4ccccc34)[C@@](C(=O)OC)(c3cc4c(cc3OC)N(C=O)[C@H]3[C@@](O)(C(=O)OC)[C@H](OC(C)=O)[C@]5(CC)C=CCN6CC[C@]43[C@@H]65)C2)C1 [vincristine],Resistance of the drug resistant variant,[1],3.5 fold
